Measurements from US11608380B2, “Anti-EGFRvIII antibodies and uses thereof” (REGENERON PHARMACEUTICALS, INC., priority 2014, dated 2023).

What was measured:
Test in all cases: Cell viability (CCK8) cell kill assay
[1] = tested on: HEK293; format: cell-based
Protocol: (§1) Next, the ability of anti-human EGFRvIII antibodies conjugated to the maytansine toxin DM1 to reduce cell viability was determined using in vitro cell based assays. Cells were seeded in PDL-coated 96 well plates at 250-2000 cells per well in complete growth media and allowed to grow overnight. For cell viability curves, ADCs or free drug (DM1-SMe) was added to cells at final concentrations ranging from 500 nM to 5 μM and incubated for 3 days. Cells were incubated with CCK8 (Dojindo) for the final 1-3 h and the absorbance at 450 nm (OD450) was determined on the Flexstation3 (Molecular Devices). Background OD450 levels from digitonin (40 nM) treated cells was subtracted from all wells and viability is expressed as a percentage of the untreated controls. IC50 values were determined from a four-parameter logistic equation over a 10-point response curve (Graph Pad Prism). IC50 values are in nM and are normalized for the particular drug/antibody ratio (DAR).

[2] = tested on: MMT; format: cell-based
Protocol: as §1

[3] = tested on: U251; format: cell-based; conditions: Table 18A
Protocol: as §1

[4] = tested on: HEK293/hEGFRvIII; format: cell-based, human
Protocol: (§2) All cells were generated via lipofectamine 2000 based methodologies and were cultured in complete growth media in the presence of G418.
as §1, with “Cells were incubated with CCK8 (Dojindo) for the final 1-3 h and the absorbance at 450 nm (OD450) was determined on the Flexstation3 (Molecular Devices).” left out

[5] = tested on: HEK293/hEGFRwt; format: cell-based, human; conditions: Table 18A
Protocol: as §2
as §1, with “Cells were incubated with CCK8 (Dojindo) for the final 1-3 h and the absorbance at 450 nm (OD450) was determined on the Flexstation3 (Molecular Devices).” left out

[6] = tested on: MMT/hEGFRvIII; format: cell-based, human
Protocol: as §2
as §1, with “Cells were incubated with CCK8 (Dojindo) for the final 1-3 h and the absorbance at 450 nm (OD450) was determined on the Flexstation3 (Molecular Devices).” left out

[7] = tested on: U251/hEGFRvIII; format: cell-based, human; conditions: Table 18B
Protocol: as §2
as §1, with “Cells were incubated with CCK8 (Dojindo) for the final 1-3 h and the absorbance at 450 nm (OD450) was determined on the Flexstation3 (Molecular Devices).” left out

[8] = Table 20, HEK293, single ADC or 1:1 pairwise combination
[9] = Table 20, MMT, single ADC or 1:1 pairwise combination
[10] = Table 19, HEK293/hEGFRvIII (high)
[11] = Table 20, HEK293/hEGFRvIII, single ADC or 1:1 pairwise combination
[12] = Table 20, MMT/hEGFRvIII, single ADC or 1:1 pairwise combination

DM1-SMe
% Kill ([1]; Table 18A, HEK293): 97% | IC50 ([1]; Table 18A, HEK293, 3 days, normalized for DAR): 310 pM | % Kill ([1]; Table 19, HEK293): 98% | IC50 ([1]; Table 19, HEK293): 190 pM | % Kill [1, 8]: 96% | IC50 [1, 8]: 210 pM | % Kill ([2]; Table 18B, MMT): 96% | IC50 ([2]; Table 18B, MMT, 3 days, normalized for DAR): 600 pM | % Kill ([2]; Table 19, MMT): 100% | IC50 ([2]; Table 19, MMT): 150 pM | % Kill [2, 9]: 100% | IC50 [2, 9]: 190 pM | % Kill ([3]; U251): 81% | IC50 ([3]; U251, 3 days, normalized for DAR): 1800 pM | % Kill ([4]; Table 18A, HEK293/hEGFRvIII): 99% | IC50 ([4]; Table 18A, HEK293/hEGFRvIII, 3 days, normalized for DAR): 600 pM | % Kill [4, 10]: 99% | IC50 [4, 10]: 250 pM | % Kill [4, 11]: 97% | IC50 [4, 11]: 280 pM | % Kill [5]: 95% | IC50 ([5]; 3 days, normalized for DAR): 570 pM | % Kill ([6]; Table 18B, MMT/hEGFRvIII): 100% | IC50 ([6]; Table 18B, MMT/hEGFRvIII, 3 days, normalized for DAR): 700 pM | % Kill ([6]; Table 19, MMT/hEGFRvIII (high)): 99% | IC50 ([6]; Table 19, MMT/hEGFRvIII (high)): 180 pM | % Kill [6, 12]: 100% | IC50 [6, 12]: 190 pM | % Kill [7]: 83% | IC50 ([7]; 3 days, normalized for DAR): 1200 pM
